Reference: patent US20260125360A1, “HERBICIDAL IMIDAZOLE COMPOUNDS” (SYNGENTA CROP PROTECTION AG, priority 2022, published 2026)

Legend:
Type in all cases: in vivo
Conditions in all cases: 250 g/ha, evaluated after 13 days
[1] = system: Ipomoea hederacea (IPOHE); assay: Post-emergence herbicide glasshouse test
Experimental: (§1) Seeds of a variety of test species are sown in standard soil in pots Amaranthus palmeri (AMAPA), Amaranthus retoflexus (AMARE), Echinochloa crus-galli (ECHCG), Ipomoea hederacea (IPOHE)). After cultivation for one day (pre-emergence) or after 8 days cultivation (post-emergence) under controlled conditions in a glasshouse (at 24/16° C., day/night; 14 hours light; 65% humidity), the plants are sprayed with an aqueous spray solution derived from the formulation of the technical active ingredient in acetone/water (50:50) solution containing 0.5% Tween 20 (polyoxyethelyene sorbitan monolaurate, CAS RN 9005-64-5). Compounds are applied at 250 g/ha unless otherwise stated. The test plants are then grown in a glasshouse under controlled conditions in a glasshouse (at 24/16° C., day/night; 14 hours light; 65% humidity) and watered twice daily. After 13 days for pre and post-emergence, the test is evaluated for the percentage damage caused to the plant. The biological activities are shown in the following table on a five-point scale (5=81-100%; 4=61-80%; 3=41-60%; 2=21-40%; 1=0-20%).

[2] = system: Echinochloa crus-galli (ECHCG); assay: Post-emergence herbicide glasshouse test
Experimental: as §1

[3] = system: Amaranthus palmeri (AMAPA); assay: Post-emergence herbicide glasshouse test
Experimental: as §1

[4] = system: Amaranthus retoflexus (AMARE); assay: Post-emergence herbicide glasshouse test
Experimental: as §1

[5] = system: Ipomoea hederacea (IPOHE); assay: Pre-emergence herbicide glasshouse test
Experimental: as §1

[6] = system: Echinochloa crus-galli (ECHCG); assay: Pre-emergence herbicide glasshouse test
Experimental: as §1

[7] = system: Amaranthus palmeri (AMAPA); assay: Pre-emergence herbicide glasshouse test
Experimental: as §1

[8] = system: Amaranthus retoflexus (AMARE); assay: Pre-emergence herbicide glasshouse test
Experimental: as §1

SMILES | percentage damage caused to the plant, IPOHE (five-point scale) [1] | percentage damage caused to the plant, ECHCG (five-point scale) [2] | percentage damage caused to the plant, AMAPA (five-point scale) [3] | percentage damage caused to the plant, AMARE (five-point scale) [4] | percentage damage caused to the plant, IPOHE (five-point scale) [5] | percentage damage caused to the plant, ECHCG (five-point scale) [6] | percentage damage caused to the plant, AMAPA (five-point scale) [7] | percentage damage caused to the plant, AMARE (five-point scale) [8]
Cc1cnc(Cn2cc(C(F)(F)F)nc2-c2ccc(Cl)nc2)s1 [Compound 1.034] | 4 (4=61-80%) | 5 (5=81-100%) | 5 (5=81-100%) | 5 (5=81-100%) | 5 (5=81-100%) | 5 (5=81-100%) | 5 (5=81-100%) | 5 (5=81-100%)
Cc1cc(Cn2cc(C(F)(F)F)nc2-c2ccc(Cl)nc2)nn1C [Compound 1.044] | 4 (4=61-80%) | 1 (1=0-20%) | 4 (4=61-80%) | 4 (4=61-80%) | 1 (1=0-20%) | 1 (1=0-20%) | 5 (5=81-100%) | 5 (5=81-100%)
Cn1ccc(Cn2cc(C(F)(F)F)nc2-c2ccc(Cl)nc2)n1 [Compound 1.045] | 4 (4=61-80%) | 1 (1=0-20%) | 5 (5=81-100%) | 5 (5=81-100%) | 5 (5=81-100%) | 1 (1=0-20%) | 5 (5=81-100%) | 5 (5=81-100%)
CCc1cc(Cn2cc(C(F)(F)F)nc2-c2ccc(Cl)nc2)no1 [Compound 1.046] | 4 (4=61-80%) | 4 (4=61-80%) | 5 (5=81-100%) | 5 (5=81-100%) | 5 (5=81-100%) | 5 (5=81-100%) | 5 (5=81-100%) | 5 (5=81-100%)
FC(F)n1ccc(Cn2cc(C(F)(F)F)nc2-c2ccc(Cl)nc2)n1 [Compound 1.051] | 4 (4=61-80%) | 1 (1=0-20%) | 5 (5=81-100%) | 5 (5=81-100%) | 5 (5=81-100%) | 1 (1=0-20%) | 5 (5=81-100%) | 5 (5=81-100%)
Cn1cc(Cn2cc(C(F)(F)F)nc2-c2ccc(Cl)nc2)nn1 [Compound 1.057] | 4 (4=61-80%) | 4 (4=61-80%) | 4 (4=61-80%) | 4 (4=61-80%) | 5 (5=81-100%) | 4 (4=61-80%) | 5 (5=81-100%) | 5 (5=81-100%)
FC(F)c1cc(Cn2cc(C(F)(F)F)nc2-c2ccc(Cl)nc2)no1 [Compound 1.059] | 5 (5=81-100%) | 5 (5=81-100%) | 5 (5=81-100%) | 5 (5=81-100%) | 5 (5=81-100%) | 5 (5=81-100%) | 5 (5=81-100%) | 5 (5=81-100%)
CCn1ccc(Cn2cc(C(F)(F)F)nc2-c2ccc(Cl)nc2)n1 [Compound 1.063] | 3 (3=41-60%) | 1 (1=0-20%) | 5 (5=81-100%) | 5 (5=81-100%) | 5 (5=81-100%) | 1 (1=0-20%) | 5 (5=81-100%) | 5 (5=81-100%)
Cc1nnc(Cn2cc(C(F)(F)F)nc2-c2ccc(Cl)nc2)s1 [Compound 1.065] | 1 (1=0-20%) | 1 (1=0-20%) | 5 (5=81-100%) | 5 (5=81-100%) | 5 (5=81-100%) | 1 (1=0-20%) | 5 (5=81-100%) | 5 (5=81-100%)
Cn1nnc(Cn2cc(C(F)(F)F)nc2-c2ccc(Cl)nc2)c1C(F)F [Compound 1.070] | 4 (4=61-80%) | 1 (1=0-20%) | 4 (4=61-80%) | 4 (4=61-80%) | 4 (4=61-80%) | 1 (1=0-20%) | 5 (5=81-100%) | 5 (5=81-100%)
Cc1cc(Cn2cc(C(F)(F)F)nc2-c2ccc(Cl)nc2)no1 [Compound 1.075] | 5 (5=81-100%) | 5 (5=81-100%) | 5 (5=81-100%) | 5 (5=81-100%) | 5 (5=81-100%) | 5 (5=81-100%) | 5 (5=81-100%) | 5 (5=81-100%)
FC(F)(F)c1cn(Cc2ccsn2)c(-c2ccc(Cl)nc2)n1 [Compound 1.077] | 1 (1=0-20%) | 1 (1=0-20%) | 4 (4=61-80%) | 4 (4=61-80%) | 1 (1=0-20%) | 1 (1=0-20%) | 5 (5=81-100%) | 5 (5=81-100%)
Cn1nc(Cn2cc(C(F)(F)F)nc2-c2ccc(Cl)nc2)cc1Cl [Compound 1.084] | 4 (4=61-80%) | 1 (1=0-20%) | 4 (4=61-80%) | 4 (4=61-80%) | 5 (5=81-100%) | 3 (3=41-60%) | 5 (5=81-100%) | 5 (5=81-100%)
CCn1nnc(Cn2cc(C(F)(F)F)nc2-c2ccc(Cl)nc2)n1 [Compound 1.086] | 5 (5=81-100%) | 5 (5=81-100%) | 5 (5=81-100%) | 5 (5=81-100%) | 5 (5=81-100%) | 5 (5=81-100%) | 5 (5=81-100%) | 5 (5=81-100%)
Cn1cnc(Cn2cc(C(F)(F)F)nc2-c2ccc(Cl)nc2)n1 [Compound 1.087] | 5 (5=81-100%) | 5 (5=81-100%) | 5 (5=81-100%) | 5 (5=81-100%) | 5 (5=81-100%) | 5 (5=81-100%) | 5 (5=81-100%) | 5 (5=81-100%)
